Data taken from US5324722A, “2-, 3-, 5-, 8-, 10- and/or 11-substituted dibenzoxazepine compounds, pharmaceutical compositions and methods for treating pain” (G. D. Searle & Co., priority 1993, dated 1994).

Columns and labels:
mice = assay: Writhing Assay (PBQ-induced writhing); format: in vivo; conditions: for WRITHING ASSAY Number Out of Ten I.G. / WRITHING ASSAY Number Out of Ten S.C.: number of mice out of ten with analgesia, 30 minutes before PBQ i.p., male albino mice; for WRITHING ASSAY Number Out of Ten I.G.: 30 mg per kilogram intragastric; for WRITHING ASSAY Number Out of Ten S.C.: 30 mg per kilogram subcutaneous
Source text: The Writhing Assay is one of the most widely-used experimental procedures for measuring the analgesic activity of different narcotic and nonnarcotic analgesic agents, and involves the continuous, chemically-induced pain of visceral origin to an animal, such as a mouse orrat. [Gyires et al., Arch. int. Pharmacodyn, 267, 131-140 (1984); C. Vander Wende et al., Fed. Proc., 15, 494 (1956); Koster et al., Fed. Proc., 18, 412 (1959); and Witken et al., J. Pharmacol. exp. Ther., 133, 400-408 (1961).] Chemicals which may be used to induce this pain include phenylbenzoquinone (PBQ) and acetic acid. As a result of the chemical irritation to the animal, a characteristic stretching and writhing of the animal (dorsiflexion of the animal's back, extension of its hindlimbs and the strong contraction of its abdominal musculature) will generally occur. […] Drugs which reduce the number of writhes of the animal appear to restore the normal nociceptive threshold of the animal.
Charles River male albino mice, weighing 20 to 30 grams were used in this assay.
Thirty minutes after subcutaneous or intragastric administration to ten mice of 30 mg per kilogram of body weight of a compound of the present invention ("test compound"), […] per 10 g of body weight of a 0.025% w/v solution of PBQ was injected intraperitoneally into each mouse. Ten mice which were given saline in place of a test compound of the invention were used as a control group.
Five minutes later, each mouse was individually placed into a glass beaker for observation, and the number of writhes occurring during the following ten-minute period was counted.
A test compound was considered to have produced analgesia in a mouse if, in accordance with the conditions set forth above, and under the test criteria employed for this assay, after the administration of 30 mg per kilogram of body weight of a compound of the present invention to the mouse, the number of writhes elicited by a mouse injected with PBQ was equal to, or less than, one-half the median number of writhes recorded for the saline-treated control group of mice that day, as described by Taber in "Predictive Value of Analgesic Assays in Mice and Rats," Advances in BiochemicaI Psychopharmacology, 8, 191 (1974).
The results for the particular compounds of the present invention analyzed in this assay, and discussed in the examples identified below which correspond thereto, are presented in Table 1 hereinbelow under the heading "WRITHING ASSAY." The numbers in fractions indicate the number of mice out of ten in which a test compound produced analgesia. […] (b) Prostaglandin (PGE) Antagonism Assay

[1] = biological target: T1, prostaglandin E2-induced contractions of segments of guinea pig ileum (Cavia porcellus, UniProt A0A286XHJ6); assay: Prostaglandin (PGE) Antagonism Assay in guinea pig ileum; format: cell-based; conditions: pA2 against prostaglandin E2-induced contractions; initial concentration 3 micromolar; estimated or by Schild plot
T1 construct: Segments of ileum about 2 cm long were then cut and mounted in a 10 mL tissue bath; from tissue; host or cells: guinea pig ileum segments
T1 sequence (A0A286XHJ6 1-405): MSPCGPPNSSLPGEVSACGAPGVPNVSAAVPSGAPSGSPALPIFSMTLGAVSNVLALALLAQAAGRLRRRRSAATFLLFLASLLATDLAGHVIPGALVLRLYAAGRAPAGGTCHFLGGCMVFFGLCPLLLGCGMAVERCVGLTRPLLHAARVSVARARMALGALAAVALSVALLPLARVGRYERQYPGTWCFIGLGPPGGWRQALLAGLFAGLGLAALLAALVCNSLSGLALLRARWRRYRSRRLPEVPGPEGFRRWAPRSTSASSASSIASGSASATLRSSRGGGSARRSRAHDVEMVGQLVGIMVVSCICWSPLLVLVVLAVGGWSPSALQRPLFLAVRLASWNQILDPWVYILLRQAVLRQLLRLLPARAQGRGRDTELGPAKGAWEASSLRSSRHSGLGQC
Experimental: In order to determine the effectiveness of several of the compounds of the present invention ("test compounds") as prostaglandin E2 antagonists,a prostaglandin antagonism assay was conducted, as described below, to determine the ability of these compounds to inhibit prostaglandin E2 -induced contractions of segments of guinea pig ileum.
Male albino guinea pigs weighing 200 to 500 grams were sacrificed by cervical dislocation. The ilea were then quickly removed from the guinea pigs and placed in a modified Tyrode solution, a solution which is known to those skilled in the art, containing one-half of the usual amount of magnesium ions.
Segments of ileum about 2 cm long were then cut and mounted in a 10 mL tissue bath containing the modified Tyrode solution. The solution was maintained at 37° C. and aerated with a gaseous mixture of 95% oxygen and 5% carbon dioxide. Data for a control prostaglandin E2 dose response curve plotting concentration of prostaglandin E2 versus the intensity of contractions, detected isotonically, was then obtained by experimentally adjusting the dose of the prostaglandin E2 being injected into the tissue bath, in a manner known by those of skill in the art.
Solutions or suspensions containing an initial concentration (3 micromolar) of a test compound in modified Tyrode solution ("test solutions/suspensions") were then separately substituted for the control bath solution. Each test solution/suspension was then kept in constant contact with the ileum tissue, except for brief periods to drain the bath in preparation for rinsing with fresh test solution/suspension. A second prostaglandin E2 dose response curve was then generated for prostaglandin E2 in the presence of a test compound.
A dose ratio of EC50 doses was then calculated from the results of each test in a manner known by those of skill in the art. A test compound was determined to be "active" if the initial concentration used yielded at least a two-fold shift (dose ratio greater than or equal to 2) in the dose response curve for 10 prostaglandin E2.

For `CCS(=O)(=O)CCC(=O)NNC(=O)C1c2ccccc2Oc2ccc(Cl)cc2N1C(=O)OC(C)(C)C` (stereo not drawn) [Example 7, 8-chlorodibenz[b,f][1,4]oxazepine-10,11(11H)-dicarboxylic acid, 10-(1,1-dimethylethyl) ester, 11-[2-[3-(ethylsulfonyl)-1-oxopropyl]hydrazide]], the “relative analgesic potency in the Writhing Assay” value (mice; among the compounds of the invention tested, 30 mg per kilogram, mice) was “most potent”, the “WRITHING ASSAY Number Out of Ten I.G.” value (mice) was 5/10 and the “WRITHING ASSAY Number Out of Ten S.C.” value (mice) was 3/10.

With `CCCC1c2ccccc2Oc2ccc(Cl)cc2N1C(=O)NNC(=O)CCS(=O)(=O)CC` (stereo not drawn) [Example 21, 8-chloro-11-propyldibenz[b,f][1,4]oxazepine-10(11H)-carboxylic acid. 2-[3-(ethylsulfonyl)-1-oxopropyl]hydrazide] the “PGE ANTAGONISM IN GUINEA PIG ILEUM (pA2 value)” value [1] was 5.94, the “WRITHING ASSAY Number Out of Ten I.G.” value (mice) was 3/10 and the “WRITHING ASSAY Number Out of Ten S.C.” value (mice) was 1/10.

`CCC1c2ccccc2Oc2ccc(Cl)cc2N1C(=O)NNC(=O)CCS(=O)(=O)CC` (stereo not drawn) [Example 17, 8-chloro-11-ethyldibenz[b,f][1,4]oxazepine-10(11H)-carboxylic acid, 2-[3-(ethylsulfonyl)-1-oxopropyl]hydrazide] was tested, and the Kb [1] was 1290 nM, the “WRITHING ASSAY Number Out of Ten I.G.” value (mice) was 1/10 and the “WRITHING ASSAY Number Out of Ten S.C.” value (mice) was 2/10.

`CCS(=O)(=O)CCC(=O)NNC(=O)N1c2cc(Cl)ccc2Oc2ccccc2C1C` (stereo not drawn) [Example 13, 8-chloro-11-methyldibenz[b,f][1,4]oxazepine-10(11H)-carboxylic acid, 2-[3-(ethylsulfonyl)-1-oxopropyl]hydrazide] was tested, and the “PGE ANTAGONISM IN GUINEA PIG ILEUM (pA2 value)” value [1] was 6.03, the “WRITHING ASSAY Number Out of Ten I.G.” value (mice) was 5/10 and the “WRITHING ASSAY Number Out of Ten S.C.” value (mice) was 5/10.
